Columns and labels:
Assay type in all cases: cell-based
hNav1.1 [1] = molecular target: T1, hNav1.1 (Homo sapiens, UniProt P35498); assay: automated whole-cell voltage clamp
T1 construct: gene SCN1A; full-length alpha-subunit in HEK-293 cells with human beta1; with Sodium channel regulatory subunit beta-1

hNav1.1 [2] = molecular target: T2, hNav1.1 (Homo sapiens, UniProt P35498, F1774A); assay: automated whole-cell voltage clamp
T2 construct: gene SCN1A; full-length alpha-subunit in HEK-293 cells with human beta1; with Sodium channel regulatory subunit beta-1

hNav1.6 [3] = molecular target: T3, hNav1.6 (Homo sapiens, UniProt Q9UQD0, N1768D); assay: automated whole-cell voltage clamp
T3 construct: gene SCN8A; full-length alpha-subunit in HEK-293 cells with human beta1; with Sodium channel regulatory subunit beta-1

mNav1.6 = molecular target: T4, mNav1.6 (Mus musculus, UniProt Q9WTU3); assay: automated whole-cell voltage clamp (Qube-384)
T4 construct: gene Scn8a; full-length mouse alpha-subunit in HEK-293 cells with human beta1; with Sodium channel regulatory subunit beta-1 (human)

hNav1.5 = molecular target: T5, hNav1.5 (Homo sapiens, UniProt Q14524); assay: automated whole-cell voltage clamp (Qube-384)
T5 construct: gene SCN5A; full-length alpha-subunit in HEK-293 cells with human beta1; with Sodium channel regulatory subunit beta-1

NaChBac = molecular target: T6, NaChBac (Halalkalibacterium halodurans, UniProt Q9KCR8); assay: whole-cell voltage clamp
T6 construct: gene BH1501; homotetrameric bacterial channel expressed in HEK-293 cells (construct not described)
T6 sequence (Q9KCR8 1-274): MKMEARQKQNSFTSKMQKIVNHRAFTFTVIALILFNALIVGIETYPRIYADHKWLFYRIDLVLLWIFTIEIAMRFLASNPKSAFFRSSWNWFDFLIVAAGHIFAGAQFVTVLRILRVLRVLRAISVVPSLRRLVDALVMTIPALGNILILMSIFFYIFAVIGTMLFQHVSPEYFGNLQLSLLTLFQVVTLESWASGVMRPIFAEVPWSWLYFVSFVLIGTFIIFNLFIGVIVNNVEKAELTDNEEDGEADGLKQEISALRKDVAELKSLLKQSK

hNav1.3 = molecular target: T7, hNav1.3 (Homo sapiens, UniProt Q9NY46); assay: automated whole-cell voltage clamp (Qube-384)
T7 construct: gene SCN3A; full-length alpha-subunit in HEK-293 cells with human beta1; with Sodium channel regulatory subunit beta-1

hNav1.6 [4] = molecular target: T8, hNav1.6 (Homo sapiens, UniProt Q9UQD0); assay: automated whole-cell voltage clamp
T8 construct: gene SCN8A; full-length alpha-subunit in HEK-293 cells with human beta1; with Sodium channel regulatory subunit beta-1

hNav1.4 = molecular target: T9, hNav1.4 (Homo sapiens, UniProt P35499); assay: automated whole-cell voltage clamp (Qube-384)
T9 construct: gene SCN4A; full-length alpha-subunit in HEK-293 cells with human beta1; with Sodium channel regulatory subunit beta-1

hNav1.2 = molecular target: T10, hNav1.2 (Homo sapiens, UniProt Q99250); assay: manual whole-cell patch clamp
T10 construct: gene SCN2A; full-length alpha-subunit in HEK-293 cells with human beta1; with Sodium channel regulatory subunit beta-1

Compound | IC50 (hNav1.1 [1]) | IC50 (hNav1.1 [2]) | IC50 (hNav1.6 [3]) | IC50 (mNav1.6) | IC50 (hNav1.5) | IC50 (NaChBac) | IC50 (hNav1.3) | IC50 (hNav1.6 [4]) | IC50 (hNav1.4) | IC50 (hNav1.2)
CCCCNc1ccc(C(=O)OCCN(C)C)cc1 [tetracaine] | 1600 ± 100 nM | ~44100 nM |  |  |  |  |  |  |  | 
C=C(C)[C@@H]1CCC(C)=C[C@H]1c1c(O)cc(CCCCC)cc1O [cannabidiol] | 2500 ± 200 nM | 4800 ± 200 nM | 10000 ± 700 nM | 2400 ± 100 nM | 3800 ± 200 nM | 1500 ± 200 nM | 3300 ± 100 nM | 3000 ± 100 nM | 1900 ± 100 nM | 1300 ± 100 nM
